Values quoted from earlier work in patent US8911774B2, “Topical composition for anti-aging skin treatment using dual DNA repair mechanism and method of use” (Cellhealth Technologies Ltd., priority 2009, dated 2014).

Columns and labels:
[1] = tested on: p53
[2] = tested on: 8-OHdG
[3] = tested on: melanin synthesis; conditions: at a concentration of 0.1%
[4] = tested on: skin damage; conditions: shown clinically
[5] = tested on: tyrosinase

CCCCCCCCC(CCCCCC)C(=O)OC[C@H](OC(=O)C(CCCCCC)CCCCCCCC)[C@H]1OC(=O)C(OC(=O)C(CCCCCC)CCCCCCCC)=C1OC(=O)C(CCCCCC)CCCCCCCC (stereo partly drawn) [tetrahexyldecyl ascorbate]
p53 expression induced by UV-B radiation [1]: decreases
8-OHdG induced by UV-A radiation [2]: decreases
reduction of melanin synthesis [3]: 80%

Tocotrienol
strength and effectiveness at repairing skin damage relative to regular Vitamin E [4]: 40-50 times

CC1(C)C=Cc2c(ccc3c2OC[C@@H](c2ccc(O)cc2O)C3)O1 [Glabridin]
tyrosinase-inhibition activity relative to Kojic acid [5]: 25 times
tyrosinase-inhibition activity relative to ascorbic acid [5]: 75 times
